Data published in patent publication US20210269848A1, “COMPOSITION OF MICROORGANISMS INDICATING DECONTAMINATION” (NOVOLYZE, priority 2018, published 2021).

What was measured:
[1] = test system: Enterococcus faecium; assay: Heat resistance (log loss) of E. faecium compositions with brilliant blue FCF at 100° C.; format: cell-based; conditions: 3% dye
Procedure: (§1) “Log loss” refers to the difference between initial viability and viability at a given time.
Method: The Enterococcus faecium strain in dry form was mixed with an inert support (maltodextrin) and with each dye individually. The subsequent mixture is placed in an Eppendorf tube in a dry bath at a temperature of 100° C. Samples were taken at 2, 5 and 10 min and cell counts were performed on TSA (Trypticase Soy Agar) medium for 24 h at 37° C.
Must: addition of 3% of blue dye powder to 5 mL of fermentation must in a sterile jar. Vortexing for homogenization, distribution in tubes and heat treatment.
Pure: addition of 3% of dye to 5 g of pure lyophilisate in a sterile jar. Vortexing for homogenization, distribution in tubes and heat treatment.
Support: addition of 1% of pure lyophilisate to 5 g of maltodextrin in a sterile jar (1/100 dilution). Vortexing for homogenization, then addition of 3% of dye. Vortexing then distribution in tubes and heat treatment.

[2] = test system: A. pascens CNCM I-5181; assay: Log loss after heat treatment on nonfat dried milk NFDM; format: cell-based; conditions: 3% dye
Procedure: as §1
(§2) The test is performed for the following 3 strains: E. faecium ATCC 8459, P. agglomerans CNCM I-5055 and A. pascens CNCM I-5181.
(§3) Addition of 10% of pure lyophilisate of the strains to 5 g of maltodextrin. Vortexing for homogenization. […] Vortexing. Addition of 1% of the dyed strain mixture diluted 1/10 to 5 g NFDM. Vortexing. Deposition of 0.1 g in Eppendorf tubes then heat treatment of the tubes in a dry bath at 90 and 100° C. for 2, 5 and 10 minutes

[3] = test system: E. faecium ATCC 8459; assay: as above; format: cell-based; conditions: 3% dye
Procedure: as §1, §2, §3

[4] = test system: P. agglomerans CNCM I-5055; assay: as above; format: cell-based; conditions: 3% dye
Procedure: as §1, §2, §3

[5] = test system: A. pascens CNCM I-5181; assay: Log loss after heat treatment on black pepper; format: cell-based; conditions: 3% dye
Procedure: as §1
(§4) The test is performed for the following 3 strains: E. faecium ATCC 8459, P. agglomerans CNCM I-5055 and A. pascens CNCM I-5181
as §3, with “of black pepper followed by a spray of wet fixing agent for good adhesion. Mixing with a sterile spatula. Drying 2 h.” for “NFDM. Vortexing.”, “0.2” for “0.1”

[6] = test system: E. faecium ATCC 8459; assay: Log loss after heat treatment on black pepper; format: cell-based; conditions: 3% dye
Procedure: as §1, §4
as §3, with “of black pepper followed by a spray of wet fixing agent for good adhesion. Mixing with a sterile spatula. Drying 2 h.” for “NFDM. Vortexing.”, “0.2” for “0.1”

[7] = test system: P. agglomerans CNCM I-5055; assay: Log loss after heat treatment on black pepper; format: cell-based; conditions: 3% dye
Procedure: as §1, §4
as §3, with “of black pepper followed by a spray of wet fixing agent for good adhesion. Mixing with a sterile spatula. Drying 2 h.” for “NFDM. Vortexing.”, “0.2” for “0.1”

[8] = test system: A. pascens CNCM I-5181; assay: Log loss after heat treatment on macadamia; format: cell-based; conditions: 3% dye
Procedure: as §1, §2
(§5) Addition of 10% pure lyophilisate of the strains to 5 g of maltodextrin. Vortexing for homogenization. Addition of 3% of dye. Vortexing. Addition of 1% of the dyed strain mixture diluted 1/10 to 5 g of macadamia. Mixing with a sterile spatula. Drying 2 h. Deposition of 0.3 g in Eppendorf tubes then heat treatment of the tubes in a dry bath at 90 and 100° C. for 0, 2, 5, 10 minutes

[9] = test system: E. faecium ATCC 8459; assay: Log loss after heat treatment on macadamia; format: cell-based; conditions: 3% dye
Procedure: as §1, §2, §5

[10] = test system: P. agglomerans CNCM I-5055; assay: Log loss after heat treatment on macadamia; format: cell-based; conditions: 3% dye
Procedure: as §1, §2, §5

[11] = test system: indicator microorganisms

CCN(Cc1cccc(S(=O)(=O)O)c1)c1ccc(C(=C2C=CC(=[N+](CC)Cc3cccc(S(=O)(=O)O)c3)C=C2)c2ccccc2S(=O)(=O)[O-])cc1 [brilliant blue FCF]
Log loss at 100° C. ([1]; Must (fermentation must), 2 min): 1.23
Log loss at 100° C. ([1]; Must (fermentation must), 5 min): 1.44
Log loss at 100° C. ([1]; Must (fermentation must), 10 min): 2.16
Log loss at 100° C. ([1]; Pure (lyophilisate without support), 2 min): 0.02
Log loss at 100° C. ([1]; Pure (lyophilisate without support), 5 min): 0.17
Log loss at 100° C. ([1]; Pure (lyophilisate without support), 10 min): 0.50
Log loss at 100° C. ([1]; Support (maltodextrin), 2 min): 0.13
Log loss at 100° C. ([1]; Support (maltodextrin), 5 min): 0.94
Log loss at 100° C. ([1]; Support (maltodextrin), 10 min): 1.97
Log loss at 90° C. ([2]; 2 min): 0.06
Log loss at 100° C. ([2]; 2 min): 0.26
Log loss at 90° C. ([2]; 5 min): 0.46
Log loss at 100° C. ([2]; 5 min): 0.35
Log loss at 90° C. ([2]; 10 min): 0.62
Log loss at 100° C. ([2]; 10 min): 1.82
Log loss at 90° C. ([3]; 2 min): 0.51
Log loss at 100° C. ([3]; 2 min): 0.36
Log loss at 90° C. ([3]; 5 min): 0.36
Log loss at 100° C. ([3]; 5 min): 0.59
Log loss at 90° C. ([3]; 10 min): 0.46
Log loss at 100° C. ([3]; 10 min): 1.29
Log loss at 90° C. ([4]; 2 min): 0.07
Log loss at 100° C. ([4]; 2 min): 0.13
Log loss at 90° C. ([4]; 5 min): 0.07
Log loss at 100° C. ([4]; 5 min): 0.67
Log loss at 90° C. ([4]; 10 min): 0.37
Log loss at 100° C. ([4]; 10 min): 0.72
Log loss at 90° C. ([5]; 2 min): 0.59
Log loss at 100° C. ([5]; 2 min): 0.27
Log loss at 90° C. ([5]; 5 min): 0.76
Log loss at 100° C. ([5]; 5 min): 0.64
Log loss at 90° C. ([5]; 10 min): 0.85
Log loss at 100° C. ([5]; 10 min): 0.85
Log loss at 90° C. ([6]; 2 min): 0.31
Log loss at 100° C. ([6]; 2 min): 1.35
Log loss at 90° C. ([6]; 5 min): 0.82
Log loss at 100° C. ([6]; 5 min): 1.37
Log loss at 90° C. ([6]; 10 min): 1.46
Log loss at 100° C. ([6]; 10 min): 2.19
Log loss at 90° C. ([7]; 2 min): 1.12
Log loss at 100° C. ([7]; 2 min): 1.26
Log loss at 90° C. ([7]; 5 min): 1.6
Log loss at 100° C. ([7]; 5 min): 1.45
Log loss at 90° C. ([7]; 10 min): 1.77
Log loss at 100° C. ([7]; 10 min): 2.14
Log loss at 90° C. ([8]; 2 min): 0.25
Log loss at 100° C. ([8]; 2 min): 0.05
Log loss at 90° C. ([8]; 5 min): 0.18
Log loss at 100° C. ([8]; 5 min): 0.12
Log loss at 90° C. ([8]; 10 min): 0.38
Log loss at 100° C. ([8]; 10 min): 0.6
Log loss at 90° C. ([9]; 2 min): 0.2
Log loss at 100° C. ([9]; 2 min): 0.24
Log loss at 90° C. ([9]; 5 min): 0.53
Log loss at 100° C. ([9]; 5 min): 0.47
Log loss at 90° C. ([9]; 10 min): 1.2
Log loss at 100° C. ([9]; 10 min): 1.24
Log loss at 90° C. ([10]; 2 min): 0.3
Log loss at 100° C. ([10]; 2 min): 0.14
Log loss at 90° C. ([10]; 5 min): 0.6
Log loss at 100° C. ([10]; 5 min): 0.15
Log loss at 90° C. ([10]; 10 min): 0.14
Log loss at 100° C. ([10]; 10 min): 1.36
effect on viability of the indicator microorganisms [11]: does not affect the viability of the indicator microorganisms
